Consider 1 compound from patent EP0500953B1, “ANTINEOPLASTIC EFFECT POTENTIATOR AND ANTINEOPLASTIC AGENT” (TAIHO PHARMACEUTICAL COMPANY LIMITED, priority 1990, dated 1992).

Data set [1] has as its system mouse colon cancer line COLON 26. Description: Tumor growth inhibition, subdermally transplanted COLON 26 tumor fragment in mice (Example 1). Type of data set: in vivo. The conditions noted are these: Dosage 20.0 mg/kg, orally once a day for 9 consecutive days, tumor weight on day 12. The protocol:
(§1) A 2 mm-diameter fragment of mouse colon cancer line COLON 26 was subdermally transplanted at the back of male CDF1 mice. Beginning 24 hours after transplantation of the tumor fragment, a solution or suspension of tegafur-uracil combination drug, 5-fluorouracil and calcium folinate, the amounts of which are indicated below in Table 1, in 0.5% sodium calboxymethylcellulose (CMC) solution was administered orally once a day for 9 consecutive days. On day 12 after transplantation of the tumor fragment, the tumor was enucleated and weighed. From the ratio of the mean tumor weight in each treatment group to that in the control group, the tumor growth inhibition rate was calculated. On the other hand, the body weight of mice on the day of tumor fragment transplantation was subtracted from the body weight of mice exclusive of tumors on day 12 after transplantation and the difference was used as the index of drug-induced systemic toxicity. Furthermore, the stools passed by mice in each treatment group were examined daily and, in accordance with the method described in Japanese Journal of Cancer Research Vol. 81, 188-195 (1990), the stool property was rated on the following scale: -: normal stool (hard pellets with little moisture), ±: loose stool (normal form, moist and soft), +: loose stool (undefinable form, very moist and soft), ++: diarrheal stool (formless, watery).

A short description of data set [2]: Body weight change as index of drug-induced systemic toxicity, COLON 26-bearing mice (Example 1). The format is in vivo, male CDF1 mice. As to conditions: Dosage 20.0 mg/kg, orally once a day for 9 days, day 12 vs day of transplantation. The method, then: as §1
Data set [3] is described as follows: Stool property rating (digestive organ toxicity), COLON 26-bearing mice (Example 1). Type of data set: in vivo, male CDF1 mice. Set-up: key: -: normal stool (hard pellets with little moisture); ±: loose stool (normal form, moist and soft); +: loose stool (undefinable form, very moist and soft); ++: diarrheal stool (formless, watery). The conditions noted are these: Dosage 20.0 mg/kg, orally once a day for 9 days. The method, then:
as §1

Consider `O=c1[nH]cc(F)c(=O)[nH]1` [5-Fluorouracil, 5-fluorouracil], for which the “Tumor Growth inhibition rate (%)” value in data set [1] (Folinic acid 0 mg/kg) turned out to be 43%; in data set [1] (Folinic acid 100 mg/kg) it was 56%. Also, the “Change in body weight (g)” value is recorded as “+1.7 g” in data set [2] (Folinic acid 0 mg/kg) and “+0.1 g” in data set [2] (Folinic acid 100 mg/kg). In addition, the results for the Stool property entry in data set [3] (Folinic acid 0 mg/kg) and in data set [3] (Folinic acid 100 mg/kg) were “±” and “++”, respectively.
